Data published in article PMC5552854, “ER/K linked GPCR-G protein fusions systematically modulate second messenger response in cells” (Scientific Reports, 2017).

Legend:
β2-AR control (–) sensor = test: [3H]-DHA saturation binding (KD); set-up: species or system human; details: control sensor membranes
Description: (§1) Radio-ligand assays followed the previously published protocol. […]; PerkinElmer) for 90 min at room temperature in Tris-Buffered-Saline (TBS) pH 7.4. Samples were transferred to GF/C membranes pre-treated with 0.3% PEI solution in TBS, washed extensively with cold TBS, and dried over night at room temperature. […] Each experiment was done at least twice with different membrane preparations, with three separate samples prepared per condition, per experiment.

β2-AR-Gs sensor = test: [3H]-DHA saturation binding (KD); set-up: species or system human; details: β2-AR-Gs sensor membranes
Description: as §1

α2-AR-Gi fusion [1] = details: 100 μM / 1 mM (Fig. 3 legend), live cells
Description: Change in FRET (ΔFRET) was calculated as FRETligand – FRETbuffer.

α2-AR-Gi fusion [2] = details: 100 μM, 1 μM forskolin; α2-AR-Gi compared to α2-AR alone (–)

For CCCc1ccccc1OCC(O)CNC(C)C (stereo not shown) [[^3H]-DHA, [^3H]-dihydroalprenolol], which Kd (β2-AR control (–) sensor) is on record?
The Kd was ~0.2 nM.

What about the Kd (β2-AR-Gs sensor) of the same molecule?
The Kd was ~0.2 nM.

How did the ΔFRET (α2-AR-Gi fusion [1]) turn out when CNC[C@H](O)c1ccc(O)c(O)c1 [epinephrine] was run?
Its ΔFRET is 0.01 ± 0.002.

What about the “loss in cAMP signaling (inhibition of forskolin induced cAMP)” value (α2-AR-Gi fusion [2]) of the same molecule?
Its value is “greater loss in cAMP signaling”.
